Measured values reported in patent publication US11752166B2, “Combination therapy for treatment of HCV” (COCRYSTAL PHARMA, INC., priority 2018, dated 2023).

Tested on: HCV GT1b (Con1, HCV-1b) replicon
Experiment: HCV GT1b replicon 2-drug combination assay (firefly luciferase, MacSynergy II)
Type: cell-based, Hepatitis C virus
Set-up: Synergy volume / Antagonism volume: unit not given here
Conditions: for Antagonism volume / Synergy volume: 3 days, 0.125-8x EC50
Procedure: Materials: Cells—The HCV GT1b (Con1, HCV-1b) replicon cells were generated and provided by WuXi AppTec. The HCV-1b replicon cells are Huh7 cells stably transfected with the HCV GT1b replicon containing the HCV subgenome, resistance selection gene NEO and reporter gene firefly luciferase.
Software—HCV replicon data was analyzed using MacSynergy™ II software.
Methods: This study was to assess combination effects of the Compound A with other HCV antivirals on HCV replicon replication in the HCV GT1b replicon assay.
The 2-drug combination experiment was designed using a checkboard cross pattern of 7 drug concentrations of each agent, including each agent alone, in triplicate, plated with the Automated Liquid Workstation (Labcyte, Echo555). The concentrations of the test compounds were 0.125, 0.25, 0.5, 1, 2, 4, 8× EC50 values. The EC50 values of the test compounds were determined in a separate HCV GT1b replicon assay. The regimens of the compound combinations are listed in Table 1—where each regimen includes Compound A as the first compound. The final concentration of DMSO in the cell culture medium was 0.5%.
The HCV-1b cells were seeded at a density of 8,000 cells per well in 96-well plates and cultured in DMEM containing 10% FBS at 5% CO2 and 37° C. The replicon cells were treated with the compounds for 3 days.
The antiviral activity of the compounds was determined by monitoring activity of the replicon reporter firefly luciferase using Bright Glo in accordance with the protocol provided by the supplier. The combination indices were calculated using the MacSynergy™ II software. A positive combination index value indicates synergism, and a negative combination index value indicates antagonism.

[1] = 2nd inhibitor (NS3 protease inhibitor table, incl. ribavirin) in combination with Compound A
[2] = 2nd inhibitor (NS5B nucleoside inhibitor) in combination with Compound A
[3] = 2nd inhibitor (NS5A inhibitor) in combination with Compound A

Structure (SMILES): C=C[C@@H]1C[C@]1(NC(=O)[C@@H]1C[C@@H](Oc2ncc(OC)c3ccc(Cl)cc23)CN1C(=O)[C@@H](NC(=O)OC(C)(C)C)C(C)(C)C)C(=O)NS(=O)(=O)C1CC1 [Asunaprevir]
- Combination regimen effect [1]: Additive
- Antagonism volume [1]: −1.32
- Synergy volume [1]: 4.9

Structure (SMILES): CNC(=O)c1c(-c2ccc(F)cc2)oc2cc(N(CCCCCOCc3ccc(C(=O)O)cc3)S(C)(=O)=O)c(C3CC3)cc12 [Compound A]
- Combination effect (with HCV NS5B nucleoside inhibitors, NS5A inhibitors, NS3 protease inhibitors, NS3 helicase inhibitors, and ribavirin): either additive or synergistic effect

Structure (SMILES): CC(C)OC(=O)[C@@H](C)NP(=O)(OC[C@@H]1O[C@H](n2ccc(NO)nc2=O)[C@@](C)(O)[C@H]1O)Oc1ccccc1 (stereo partly drawn) [Compound B]
- Combination regimen effect [2]: Additive
- Antagonism volume [2]: 0.00
- Synergy volume [2]: 3.30

Structure (SMILES): COC(=O)N[C@H](C(=O)N1C[C@H](SC)C[C@@H]1c1ncc(-c2ccc(-c3ccc(-c4[nH]c([C@@H]5CCCN5C(=O)[C@@H](NC(=O)OC)c5ccccc5)nc4Cl)cc3)cc2)[nH]1)c1ccccc1 [Compound C]
- Combination regimen effect [3]: Additive
- Antagonism volume [3]: 0
- Synergy volume [3]: 3.57

Structure (SMILES): COC(=O)N[C@H](C(=O)N1CCC[C@H]1c1nc(-c2ccc(-c3ccc(-c4c[nH]c([C@@H]5CCCN5C(=O)[C@@H](NC(=O)OC)C(C)C)n4)cc3)cc2)c[nH]1)C(C)C [Daclatasvir]
- Antagonism volume [3]: −3.05
- Synergy volume [3]: 33.47

Structure (SMILES): CC(C)(C)[C@@H]1NC(=O)O[C@@H]2CCC[C@H]2OC/C=C/C(F)(F)c2nc3ccccc3nc2O[C@@H]2C[C@@H](C(=O)N[C@]3(C(=O)NS(=O)(=O)C4(C)CC4)C[C@H]3C(F)F)N(C2)C1=O [Glecaprevir]
- Combination regimen effect [1]: Minor synergism
- Antagonism volume [1]: 0.00
- Synergy volume [1]: 47.37

Structure (SMILES): COC(=O)N[C@H](C(=O)N1CC2(CC2)C[C@H]1c1nc(-c2ccc3c(c2)C(F)(F)c2cc(-c4ccc5[nH]c([C@@H]6[C@H]7CC[C@H](C7)N6C(=O)[C@@H](NC(=O)OC)C(C)C)nc5c4)ccc2-3)c[nH]1)C(C)C [Ledipasvir]
- Combination regimen effect [3]: Minor synergy
- Antagonism volume [3]: −1.08
- Synergy volume [3]: 38.55

Structure (SMILES): COC(=O)N[C@H](C(=O)N1CCC[C@H]1c1nc2cc([C@H]3CC[C@H](c4cc5nc([C@@H]6CCCN6C(=O)[C@@H](NC(=O)OC)[C@@H](C)OC)[nH]c5cc4F)N3c3cc(F)c(N4CCC(c5ccc(F)cc5)CC4)c(F)c3)c(F)cc2[nH]1)[C@@H](C)OC [Pibrentasvir]
- Combination regimen effect [3]: Additive
- Antagonism volume [3]: −24.59
- Synergy volume [3]: 5.7

Structure (SMILES): NC(=O)c1ncn([C@@H]2O[C@H](CO)[C@@H](O)[C@H]2O)n1 [Ribavirin]
- Combination regimen effect [1]: Additive
- Antagonism volume [1]: −9.76
- Synergy volume [1]: 0.24

Structure (SMILES): COc1ccc2c(O[C@@H]3C[C@H]4C(=O)N[C@]5(C(=O)NS(=O)(=O)C6CC6)C[C@H]5/C=C\CCCCN(C)C(=O)[C@@H]4C3)cc(-c3nc(C(C)C)cs3)nc2c1C [Simprevir, Simeprevir]
- Combination regimen effect [1]: Additive
- Antagonism volume [1]: 0.00
- Synergy volume [1]: 13.39

Structure (SMILES): CC(C)OC(=O)[C@H](C)N[P@](=O)(OC[C@H]1O[C@@H](n2ccc(=O)[nH]c2=O)[C@](C)(F)[C@@H]1O)Oc1ccccc1 [Sofosbuvir]
- Combination regimen effect [2]: Additive
- Antagonism volume [2]: 0.00
- Synergy volume [2]: 9.47

Structure (SMILES): COC[C@H]1C[C@@H](c2nc(-c3ccc4c(c3)COc3cc5c(ccc6nc([C@@H]7CC[C@H](C)N7C(=O)[C@@H](NC(=O)OC)C(C)C)[nH]c65)cc3-4)c[nH]2)N(C(=O)[C@H](NC(=O)OC)c2ccccc2)C1 [Velpatasvir]
- Combination regimen effect [3]: Additive
- Antagonism volume [3]: −7.92
- Synergy volume [3]: 0.76
